{"source": "ChEMBL document CHEMBL1134446", "about": "“Polyamine analogue antidiarrheals: a structure-activity study” (J Med Chem, 2001)", "format_in_all_cases": "functional", "key": {"Rattus norvegicus [1]": {"system": "Rattus norvegicus", "assay": "Stool output of rat over the 6-h collection period when a dose of 24.87 mg/kg (57.8 administered"}, "Rattus norvegicus [2]": {"system": "Rattus norvegicus", "assay": "Stool output of rat over the 6-h collection period when a dose of 4.97 mg/kg (11.6 uMl) was administered"}, "Rattus norvegicus [3]": {"system": "Rattus norvegicus", "assay": "Weight loss of rat over the 6-h experimental period when a dose of 0.03125 mg/kg (0.0726 administered"}, "Rattus norvegicus [4]": {"system": "Rattus norvegicus", "assay": "Weight loss of rat over the 6-h experimental period when a dose of 0.0625 mg/kg (0.145 administered"}, "Rattus norvegicus [5]": {"system": "Rattus norvegicus", "assay": "Weight loss of rat over the 6-h experimental period when a dose of 0.125 mg/kg (0.29 administered"}, "Rattus norvegicus [6]": {"system": "Rattus norvegicus", "assay": "Weight loss of rat over the 6-h experimental period when a dose of 0.25 mg/kg (0.58 administered"}, "Rattus norvegicus [7]": {"system": "Rattus norvegicus", "assay": "Weight loss of rat over the 6-h experimental period when a dose of 0.5 mg/kg (1.16 administered"}, "Rattus norvegicus [8]": {"system": "Rattus norvegicus", "assay": "Weight loss of rat over the 6-h experimental period when a dose of 0.99 mg/kg (2.3 administered"}, "Rattus norvegicus [9]": {"system": "Rattus norvegicus", "assay": "Weight loss of rat over the 6-h experimental period when a dose of 0 mg/kg (0 administered"}, "Rattus norvegicus [10]": {"system": "Rattus norvegicus", "assay": "Weight loss of rat over the 6-h experimental period when a dose of 0.0078 mg/kg (0.0181 administered"}, "Rattus norvegicus [11]": {"system": "Rattus norvegicus", "assay": "Weight loss of rat over the 6-h experimental period when a dose of 0.0156 mg/kg (0.036 administered"}, "Rattus norvegicus [12]": {"system": "Rattus norvegicus", "assay": "Weight loss of rat over the 6-h experimental period when a dose of 24.87 mg/kg (57.8 administered"}, "Rattus norvegicus [13]": {"system": "Rattus norvegicus", "assay": "Weight loss of rat over the 6-h experimental period when a dose of 4.97 mg/kg (11.6 administered"}, "Rattus norvegicus [14]": {"system": "Rattus norvegicus", "assay": "Percent reduction was determined by using the ratio of mean of treated animal to that of control animal at a dose of 24.87 mg/kg"}, "Rattus norvegicus [15]": {"system": "Rattus norvegicus", "assay": "Percent reduction was determined by using the ratio of mean of treated animal to that of control animal at a dose of 4.97 mg/kg"}, "Rattus norvegicus [16]": {"system": "Rattus norvegicus", "assay": "Stool output of rat over the 6-h collection period when a dose of 0.0078 mg/kg (0.0181 administered"}, "Rattus norvegicus [17]": {"system": "Rattus norvegicus", "assay": "Stool output of rat over the 6-h collection period when a dose of 0.0156 mg/kg (0.036 administered"}, "Rattus norvegicus [18]": {"system": "Rattus norvegicus", "assay": "Stool output of rat over the 6-h collection period when a dose of 0.03125 mg/kg (0.0726 administered"}, "Rattus norvegicus [19]": {"system": "Rattus norvegicus", "assay": "Stool output of rat over the 6-h collection period when a dose of 0.0625 mg/kg (0.145 administered"}, "Rattus norvegicus [20]": {"system": "Rattus norvegicus", "assay": "Stool output of rat over the 6-h collection period when a dose of 0.125 mg/kg (0.29 administered"}, "Rattus norvegicus [21]": {"system": "Rattus norvegicus", "assay": "Stool output of rat over the 6-h collection period when a dose of 0.25 mg/kg (0.58 administered"}, "Rattus norvegicus [22]": {"system": "Rattus norvegicus", "assay": "Stool output of rat over the 6-h collection period when a dose of 0.5 mg/kg (1.16 administered"}, "Rattus norvegicus [23]": {"system": "Rattus norvegicus", "assay": "Stool output of rat over the 6-h collection period when a dose of 0.99 mg/kg (2.3 administered"}, "Rattus norvegicus [24]": {"system": "Rattus norvegicus", "assay": "Stool output of rat over the 6-h collection period when a dose of 0 mg/kg (0 administered"}, "Rattus norvegicus [25]": {"system": "Rattus norvegicus", "assay": "Percent reduction was determined by using the ratio of mean of treated animal to that of control animal at a dose of 0.5 mg/kg"}, "Rattus norvegicus [26]": {"system": "Rattus norvegicus", "assay": "Percent reduction was determined by using the ratio of mean of treated animal to that of control animal at a dose of 0.0078 mg/kg"}, "Rattus norvegicus [27]": {"system": "Rattus norvegicus", "assay": "Percent reduction was determined by using the ratio of mean of treated animal to that of control animal at a dose of 0.0156 mg/kg"}, "Rattus norvegicus [28]": {"system": "Rattus norvegicus", "assay": "Percent reduction was determined by using the ratio of mean of treated animal to that of control animal at a dose of 0.03125 mg/kg"}, "Rattus norvegicus [29]": {"system": "Rattus norvegicus", "assay": "Percent reduction was determined by using the ratio of mean of treated animal to that of control animal at a dose of 0.0625 mg/kg"}, "Rattus norvegicus [30]": {"system": "Rattus norvegicus", "assay": "Percent reduction was determined by using the ratio of mean of treated animal to that of control animal at a dose of 0.125 mg/kg"}, "Rattus norvegicus [31]": {"system": "Rattus norvegicus", "assay": "Percent reduction was determined by using the ratio of mean of treated animal to that of control animal at a dose of 0.25 mg/kg"}, "Rattus norvegicus [32]": {"system": "Rattus norvegicus", "assay": "Percent reduction was determined by using the ratio of mean of treated animal to that of control animal at a dose of 0.99 mg/kg"}, "Rattus norvegicus [33]": {"system": "Rattus norvegicus", "assay": "Stool output of rat over the 6-h collection period when a dose of 28.2 mg/kg (57.8 administered"}, "Rattus norvegicus [34]": {"system": "Rattus norvegicus", "assay": "Stool output of rat over the 6-h collection period when a dose of 5.7 mg/kg (11.6 administered"}, "Rattus norvegicus [35]": {"system": "Rattus norvegicus", "assay": "Weight loss of rat over the 6-h experimental period when a dose of 1.1 mg/kg (2.3 administered"}, "Rattus norvegicus [36]": {"system": "Rattus norvegicus", "assay": "Weight loss of rat over the 6-h experimental period when a dose of 28.2 mg/kg (57.8 administered"}, "Rattus norvegicus [37]": {"system": "Rattus norvegicus", "assay": "Weight loss of rat over the 6-h experimental period when a dose of 5.7 mg/kg (11.6 administered"}, "Rattus norvegicus [38]": {"system": "Rattus norvegicus", "assay": "Percent reduction was determined by using the ratio of mean of treated animal to that of control animal at a dose of 28.2 mg/kg"}, "Rattus norvegicus [39]": {"system": "Rattus norvegicus", "assay": "Stool output of rat over the 6-h collection period when a dose of 1.1 mg/kg (2.3 administered"}}, "note": "Values joined by “and” are separate entries in the source; they are usually repeats but may differ in a detail not shown here. Equal values may be shown once."}
{"smiles": "CCNCCCNC1CCC(NCCCNCC)CC1", "note": "(stereo unspecified)", "values": [{"measurement": "Stool output", "setting": "Rattus norvegicus [1]", "value": "<0 g (350g of rat weight)-1"}, {"measurement": "Stool output", "setting": "Rattus norvegicus [2]", "value": "<0 g (350g of rat weight)-1"}, {"measurement": "Weight loss", "setting": "Rattus norvegicus [3]", "value": "<4.2", "unit": "g"}, {"measurement": "Weight loss", "setting": "Rattus norvegicus [4]", "value": "<3.7", "unit": "g"}, {"measurement": "Weight loss", "setting": "Rattus norvegicus [5]", "value": "<4.1", "unit": "g"}, {"measurement": "Weight loss", "setting": "Rattus norvegicus [6]", "value": "<2.7", "unit": "g"}, {"measurement": "Weight loss", "setting": "Rattus norvegicus [7]", "value": "<2.9", "unit": "g"}, {"measurement": "Weight loss", "setting": "Rattus norvegicus [8]", "value": "<2.7", "unit": "g"}, {"measurement": "Weight loss", "setting": "Rattus norvegicus [9]", "value": 11.6, "unit": "g"}, {"measurement": "Weight loss", "setting": "Rattus norvegicus [10]", "value": "<8.8", "unit": "g"}, {"measurement": "Weight loss", "setting": "Rattus norvegicus [11]", "value": "<3.1", "unit": "g"}, {"measurement": "Weight loss", "setting": "Rattus norvegicus [12]", "value": "<0.8", "unit": "g"}, {"measurement": "Weight loss", "setting": "Rattus norvegicus [13]", "value": "<1.6", "unit": "g"}, {"measurement": "Reduction", "setting": "Rattus norvegicus [14]", "value": "93% and 100%"}, {"measurement": "Reduction", "setting": "Rattus norvegicus [15]", "value": "86% and 100%"}, {"measurement": "Stool output", "setting": "Rattus norvegicus [16]", "value": ">3.6 g (350g of rat weight)-1"}, {"measurement": "Stool output", "setting": "Rattus norvegicus [17]", "value": "<0.4 g (350g of rat weight)-1"}, {"measurement": "Stool output", "setting": "Rattus norvegicus [18]", "value": "<0 g (350g of rat weight)-1"}, {"measurement": "Stool output", "setting": "Rattus norvegicus [19]", "value": "<0 g (350g of rat weight)-1"}, {"measurement": "Stool output", "setting": "Rattus norvegicus [20]", "value": "<0 g (350g of rat weight)-1"}, {"measurement": "Stool output", "setting": "Rattus norvegicus [21]", "value": "<0 g (350g of rat weight)-1"}, {"measurement": "Stool output", "setting": "Rattus norvegicus [22]", "value": "<0 g (350g of rat weight)-1"}, {"measurement": "Stool output", "setting": "Rattus norvegicus [23]", "value": "<0 g (350g of rat weight)-1"}, {"measurement": "Stool output", "setting": "Rattus norvegicus [24]", "value": "4.9 g (350g of rat weight)-1"}, {"measurement": "Reduction", "setting": "Rattus norvegicus [25]", "value": "75% and 100%"}, {"measurement": "Reduction", "setting": "Rattus norvegicus [26]", "value": 24, "unit": "%"}, {"measurement": "Reduction", "setting": "Rattus norvegicus [27]", "value": "73% and 92%"}, {"measurement": "Reduction", "setting": "Rattus norvegicus [28]", "value": "64% and 100%"}, {"measurement": "Reduction", "setting": "Rattus norvegicus [29]", "value": "68% and 100%"}, {"measurement": "Reduction", "setting": "Rattus norvegicus [30]", "value": "65% and 100%"}, {"measurement": "Reduction", "setting": "Rattus norvegicus [31]", "value": "77% and 100%"}, {"measurement": "Reduction", "setting": "Rattus norvegicus [32]", "value": "77% and 100%"}]}
{"smiles": "CC(C)CCNCCCNCCCCNCCCNCCC(C)C", "values": [{"measurement": "Stool output", "setting": "Rattus norvegicus [33]", "value": "<0 g (350g of rat weight)-1"}, {"measurement": "Stool output", "setting": "Rattus norvegicus [34]", "value": ">7.8 g (350g of rat weight)-1"}, {"measurement": "Weight loss", "setting": "Rattus norvegicus [9]", "value": 14.6, "unit": "g"}, {"measurement": "Weight loss", "setting": "Rattus norvegicus [35]", "value": ">14.2", "unit": "g"}, {"measurement": "Weight loss", "setting": "Rattus norvegicus [36]", "value": "<1.6", "unit": "g"}, {"measurement": "Weight loss", "setting": "Rattus norvegicus [37]", "value": ">18.3", "unit": "g"}, {"measurement": "Reduction", "setting": "Rattus norvegicus [38]", "value": "89% and 100%"}, {"measurement": "Stool output", "setting": "Rattus norvegicus [24]", "value": "4.6 g (350g of rat weight)-1"}, {"measurement": "Stool output", "setting": "Rattus norvegicus [39]", "value": ">4.9 g (350g of rat weight)-1"}]}
